Data on nine molecules can be found in US7531312B2, “Simplified biological evaluation method of natural and artificial chemicals by using DNA injury index and apparatus therefor” (TAS Project Co., Ltd., priority 2000, dated 2009).

Assay [1] has as its system 2′-deoxyguanosine (dG). The assay is described as follows: 8OHdG produced from added dG, standing at room temperature or UV irradiation (Examples 1-7).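 For all read-outs here: Cell-free test: dG in test solution, held at room temperature or exposed to 254 nm UV, then 8OHdG quantified by HPLC with electrochemical detection, compared against dG in ultrapure water.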 Particulars: for evaluation in words: oxidation induction or antioxidant ability toward dG: conclusions of Examples 2-7; for 8OHdG concentration, UV irradiation 60 minutes: ultrapure water 0.392; for 8OHdG concentration, UV irradiation 90 minutes: ultrapure water 0.901; for 8OHdG concentration, UV irradiation 120 minutes: ultrapure water 1.183.
Description: Separately, the amount of 8OHdG after an ultrapure water solution of dG is left to stand under the same conditions as above for a predetermined time is measured (this value is defined as B). If A is greater than B, the test substance is evaluated to have oxidation induction ability and conversely if A is smaller than B, the test substance is evaluated to have antioxidant ability. In either case, it is judged that the greater the difference is, the greater degree of oxidation induction ability or antioxidant capability the test substance has.
Then, 20 μl of 200 μg/ml dG (dissolved in ultrapure water) was added to each well and one of the plates was left to stand as it was at room temperature for 90 minutes and the other plate was irradiated with UV light (254 nm, 860 μW/cm^2) for 90 minutes in a UV light irradiation box. […] Subsequently, nucleosides in the both were quantified by use of the UV light absorption analyzer connected to the HPLC and the electrochemical detector.
Solutions of predetermined concentrations of vitamin C (VC), vitamin E (VE), catechin (Cate) and tannic acid (Tan) were prepared and 180 μl portions were injected into each well of two 99-well plastic plates. Then, 20 μl of 200 μg/ml dG (dissolved in ultrapure water) was added to each well and one of the plates was left to stand as it was at room temperature for 90 minutes and the other plate was irradiated with UV light (254 nm, 860 μW/cm^2) for 90 minutes in a UV light irradiation box.
Then, 20 μl of 200 μg/ml dG (dissolved in ultrapure water) was added to each well and one of the plates was left to stand as it was at room temperature for 90 minutes and another plate was left to stand similarly at room temperature for 24 hours. The remaining three plates were irradiated with UV light (254 nm, 860 μW/cm^2) for 60 minutes, 90 minutes and 120 minutes, respectively, in a UV light irradiation box.
Solutions of predetermined concentrations of glucose (Glu), raffinose (Raffi) and sucrose (Suc) were prepared and 180 μl portions thereof were injected into each well of four 99-well plastic plates. Then, 20 μl of 200 μg/ml dG (dissolved in ultrapure water) was added to each well and one of the plates was left to stand as it was at room temperature for 90 minutes. The remaining three plates were irradiated with UV light (254 nm, 860 μW/cm^2) for 60 minutes, 90 minutes and 120 minutes, respectively, in a UV light irradiation box.
Then, 20 μl of 200 μg/ml dG (dissolved in ultrapure water) was added to each well and one of the plates was left to stand as it was at room temperature for 90 minutes and the other plate was irradiated with UV light (254 nm, 860 μW/cm^2) for 90 minutes in a UV light irradiation box.
Solutions of various concentrations of uric acid (dissolving fluid: distilled water+0.025% FBS) were prepared and 180 μl portions thereof were injected into each well of two 99-well plastic plates. Then, 20 μl of 200 μg/ml dG (dissolved in ultrapure water) was added to each well and one of the plates was left to stand as it was at room temperature for 90 minutes and the other plate was irradiated with UV light (254 nm, 860 μW/cm^2) for 90 minutes in a UV light irradiation box.

Assay [2] deals with 2′-deoxyguanosine (dG). The assay is described as follows: 8OHdG produced from dG with test substance and coexisting bisphenol A, standing or UV (Example 9). The assay is classed as biochemical. The method, then: 170 μl portions of ultrapure water and predetermined concentrations of vitamin C (VC), vitamin E (VE), and glucose (Glu) as test substance were added to each well of two […] plastic plates and, as additional solution, 20 μl of ultrapure water or predetermined concentration of bisphenol A (BPA) were injected into each well.

Where [3] appears, read: 1 μg/ml, Table 5, ultrapure water 0.219.
Setting [4] is: 1 μg/ml, Table 5, ultrapure water 0.422.
[5] abbreviates: 10 μg/ml, Table 5, ultrapure water 0.219.
Setting [6] is: 10 μg/ml, Table 5, ultrapure water 0.422.
Setting [7] is: 100 μg/ml, Table 5, ultrapure water 0.219.
The mark [8] stands for this setting: 100 μg/ml, Table 5, ultrapure water 0.422.
[9] abbreviates: 1 mg/ml, Table 5, ultrapure water 0.219.
Where [10] appears, read: 1 mg/ml, Table 5, ultrapure water 0.422.
Setting [11] is: 1 μg/ml, Table 2, distilled water 0.15.
[12] abbreviates: 10 μg/ml, Table 2, distilled water 0.15.
The mark [13] stands for this setting: test substance 0.001%, additional solution ultrapure water.

Entries after “also recorded” stand apart in the source; their conditions may differ. A value given as a limit tells only on which side of the number the result lay.

As to `N=C(N)NCCC[C@H](N)C(=O)O` [Arg, 1-arginine], the “8OHdG concentration, 90 Minutes' standing” value in assay [1] (setting [3]) worked out at 0.186 ng/mL; in assay [1] (setting [5]), 0.153 ng/mL; in assay [1] (setting [7]) it was 0.150 ng/mL; in assay [1] (setting [9]), 0.173 ng/mL. Besides, the “8OHdG concentration, 90 Minutes' UV irradiation” value in assay [1] (setting [4]) stood at 0.323 ng/mL; in assay [1] (setting [6]), 0.253 ng/mL; in assay [1] (setting [8]), 0.305 ng/mL; in assay [1] (setting [10]), 0.299 ng/mL. Moreover, the “evaluation in words: oxidation induction or antioxidant ability toward dG” value (from here on “evaluation in words”) in assay [1] is “exhibited antioxidant ability”.
As to `NC(=O)NCCC[C@H](N)C(=O)O` [Cit, 1-citrulline], the “8OHdG concentration, 90 Minutes' standing” value was found to be 0.184 ng/mL in assay [1] (setting [3]), 0.179 ng/mL in assay [1] (setting [5]), 0.120 ng/mL in assay [1] (setting [7]) and 0.156 ng/mL in assay [1] (setting [9]). Besides, the “8OHdG concentration, 90 Minutes' UV irradiation” value in assay [1] (setting [4]) is 0.332 ng/mL; in assay [1] (setting [6]) it was 0.305 ng/mL; in assay [1] (setting [8]) it was 0.225 ng/mL; in assay [1] (setting [10]), 0.125 ng/mL. Further, the “evaluation in words” value in assay [1] is given as “exhibited antioxidant ability”.
Turning to `Oc1ccc(/C=C/c2cc(O)cc(O)c2)cc1` [RVT, Resveratol], the “8OHdG concentration, 90 Minutes' UV irradiation” value in assay [1] (0.0005 ppm, Table 1, ultrapure water 0.529) stood at 1.026 ng/mL; in assay [1] (0.005 ppm, Table 1, ultrapure water 0.529) it was 0.690 ng/mL; in assay [1] (0.05 ppm, Table 1, ultrapure water 0.529) it was 0.571 ng/mL; in assay [1] (0.5 ppm, Table 1, ultrapure water 0.529), 1.378 ng/mL; in assay [1] (5 ppm, Table 1, ultrapure water 0.529), 5.582 ng/mL. In addition, the “concentration at which oxidation injury activity due to UV light is elevated (harmfulness increased)” value in assay [1] (Example 1, 90 minutes UV) was not below 0.5 ppm.
Turning to `NCCCNCCCCNCCCN` [Spe, spermine], the “8OHdG concentration, 90 Minutes' standing” value came out at 0.140 ng/mL in assay [1] (setting [3]), 0.150 ng/mL in assay [1] (setting [5]), 0.154 ng/mL in assay [1] (setting [7]) and 0.179 ng/mL in assay [1] (setting [9]). The “8OHdG concentration, 90 Minutes' UV irradiation” value in assay [1] (setting [4]) came to 0.297 ng/mL; in assay [1] (setting [6]) it was 0.328 ng/mL; in assay [1] (setting [8]), 0.351 ng/mL; in assay [1] (setting [10]), 0.112 ng/mL. Moreover, in assay [1], the “evaluation in words” value is given as “exhibited antioxidant ability”.
Consider `OC[C@H]1O[C@@](CO)(O[C@H]2O[C@H](CO)[C@@H](O)[C@H](O)[C@H]2O)[C@@H](O)[C@@H]1O` [Suc, sucrose], for which the “8OHdG concentration, 90 Minutes' standing” value in assay [1] (0.1 μg/ml, Table 4, ultrapure water 0.195) was found to be 0.235 ng/mL; in assay [1] (1 μg/ml, Table 4, ultrapure water 0.195) it was 0.185 ng/mL; in assay [1] (10 μg/ml, Table 4, ultrapure water 0.195), 0.235 ng/mL; in assay [1] (100 μg/ml, Table 4, ultrapure water 0.195), 0.280 ng/mL; in assay [1] (1 mg/ml, Table 4, ultrapure water 0.195), 0.300 ng/mL. The “8OHdG concentration, UV irradiation 60 minutes” value in assay [1] (0.1 μg/ml, Table 4) turned out to be 0.299 ng/mL; in assay [1] (1 μg/ml, Table 4) it was 0.358 ng/mL; in assay [1] (10 μg/ml, Table 4), 0.333 ng/mL; in assay [1] (1 mg/ml, Table 4), 0.127 ng/mL. In addition, the “8OHdG concentration, UV irradiation 90 minutes” value in assay [1] (0.1 μg/ml, Table 4) amounted to 0.756 ng/mL; in assay [1] (1 μg/ml, Table 4), 0.708 ng/mL; in assay [1] (10 μg/ml, Table 4) it was 0.690 ng/mL; in assay [1] (100 μg/ml, Table 4) it was 0.379 ng/mL; in assay [1] (1 mg/ml, Table 4) it was 0.309 ng/mL. In addition, the “8OHdG concentration, UV irradiation 120 minutes” value worked out at 1.073 ng/mL in assay [1] (0.1 μg/ml, Table 4); 1.143 ng/mL in assay [1] (1 μg/ml, Table 4); 1.279 ng/mL in assay [1] (10 μg/ml, Table 4); 0.648 ng/mL in assay [1] (100 μg/ml, Table 4); 0.364 ng/mL in assay [1] (1 mg/ml, Table 4). Besides, the “evaluation in words” value in assay [1] is recorded as “Glu>Raffi≈Suc; also recorded: antioxidant ability as potent as that of Raffi”.
In the case of `O=C(OC[C@H]1O[C@@H](OC(=O)c2cc(O)c(O)c(OC(=O)c3cc(O)c(O)c(O)c3)c2)[C@H](OC(=O)c2cc(O)c(O)c(OC(=O)c3cc(O)c(O)c(O)c3)c2)[C@@H](OC(=O)c2cc(O)c(O)c(OC(=O)c3cc(O)c(O)c(O)c3)c2)[C@@H]1OC(=O)c1cc(O)c(O)c(OC(=O)c2cc(O)c(O)c(O)c2)c1)c1cc(O)c(O)c(OC(=O)c2cc(O)c(O)c(O)c2)c1` [Tan, tannic acid], the “8OHdG concentration, 90 Minutes' standing” value in assay [1] (setting [11]) came to 0.84 ng/mL; in assay [1] (setting [12]), 5.64 ng/mL; in assay [1] (100 μg/ml, Table 2, distilled water 0.15), 54.00 ng/mL. In addition, the “8OHdG concentration, 90 Minutes' UV irradiation” value in assay [1] (1 μg/ml, Table 2, distilled water 1.23) is 1.04 ng/mL; in assay [1] (10 μg/ml, Table 2, distilled water 1.23), 19.29 ng/mL; in assay [1] (100 μg/ml, Table 2, distilled water 1.23) it was 97.07 ng/mL. The “evaluation in words” value in assay [1] is given as “high gene injury inducing effect”.
With `O=C1O[C@H]([C@@H](O)CO)C(O)=C1O` [VC, ascorbic acid], the “effect on 8OHdG with BPA and UV light irradiation” value in assay [2] (Example 9) is reported as “does not cancel the induction of 8OHdG by BPA”. Further, the “8OHdG concentration, 90 Minutes' UV irradiation” value in assay [2] (test substance 0.00001%, additional solution BPA (50 ppm), BPA alone 11.58) came to 14.96 ng/mL; in assay [2] (test substance 0.0001%, additional solution BPA (50 ppm), BPA alone 11.58), 15.95 ng/mL; in assay [2] (test substance 0.001%, additional solution BPA (50 ppm), BPA alone 11.58), 12.53 ng/mL; in assay [2] (setting [13]), 5.75 ng/mL; in assay [1] (0.00001%, Table 2, distilled water 1.23), 0.46 ng/mL; in assay [1] (0.0001%, Table 2, distilled water 1.23), 1.51 ng/mL. For the same molecule, in assay [1] (0.001%, Table 2, distilled water 1.23), the “8OHdG concentration, 90 Minutes' UV irradiation” value amounted to 38.36 ng/mL. Besides, the “8OHdG concentration, 90 Minutes' standing” value in assay [2] (test substance 0.001%, additional solution BPA (50 ppm), BPA alone 0.22) turned out to be 1.51 ng/mL; in assay [2] (setting [13]) it was 16.3 ng/mL; in assay [1] (0.00001%, Table 2, distilled water 0.15) it was 0.44 ng/mL; in assay [1] (0.0001%, Table 2, distilled water 0.15), 0.63 ng/mL; in assay [1] (0.001%, Table 2, distilled water 0.15), 6.04 ng/mL. Moreover, the “evaluation in words” value in assay [1] is listed as “very strong oxidation inducing substance”. Also, the “8OHdG induction on storage” value in assay [1] (stored for a long period added to a dG solution in contact with air) is on record as “a large amount of 8OHdG was induced”.
On to `O=c1[nH]c(=O)c2[nH]c(=O)[nH]c2[nH]1` [uric acid], for which the “8OHdG concentration, 90 Minutes' standing” value in assay [1] (0.01 μg/ml, Table 6, dissolving fluid 0.218) worked out at 0.176 ng/mL; in assay [1] (0.1 μg/ml, Table 6, dissolving fluid 0.218), 0.193 ng/mL; in assay [1] (1 μg/ml, Table 6, dissolving fluid 0.218) it was 0.175 ng/mL; in assay [1] (10 μg/ml in distilled water+0.025% FBS, Table 6, dissolving fluid 0.218) it was 0.147 ng/mL. The “8OHdG concentration, 90 Minutes' UV irradiation” value in assay [1] (0.01 μg/ml, Table 6, dissolving fluid 1.007) was determined as 1.064 ng/mL; in assay [1] (0.1 μg/ml, Table 6, dissolving fluid 1.007) it was 0.966 ng/mL; in assay [1] (1 μg/ml, Table 6, dissolving fluid 1.007), 2.369 ng/mL; in assay [1] (10 μg/ml in distilled water+0.025% FBS, Table 6, dissolving fluid 1.007) it was 15.619 ng/mL. The “evaluation in words” value in assay [1] was “high degree of DNA oxidation injury”.
Take catechin: the results for the “8OHdG concentration, 90 Minutes' standing” value in assay [1] (setting [11]) and in assay [1] (setting [12]) were 9.07 ng/mL and 133.71 ng/mL, respectively. The “evaluation in words” value in assay [1] was “induces 8OHdG very strongly”.
